Results taken from patent US10766865B2, “PKM2 modulators and methods for their use” (TOLERO PHARMACEUTICALS, INC., priority 2012, dated 2020).
Like-named read-outs stand apart in the source and are kept apart here.

Assays:
A549 cells = test: Cell Proliferation Assay, A549; format: cell-based; settings: Homo sapiens; A549, BME media lacking nonessential amino acids, 72 hours, ATPlite; read-out: Percent viability (EC50), Average
Method: (§1) Cells were seeded at 5000 cells per well (in 96-well plate) in BME media lacking nonessential amino acids+5% dialyzed serum. After 18 hours, DMSO or compound in 0.1% final concentration DMSO was added.
(§2) Percent viability (EC50) of A549 and PC3 cells was tested against certain exemplary compounds according to the above general procedures.

PC3 cells = test: Cell Proliferation Assay, PC3; format: cell-based; settings: Homo sapiens, PC-3; PC3, BME media lacking nonessential amino acids, 72 hours, ATPlite; read-out: Percent viability (EC50), Average
Method: as §1, §2

PKM2 = PKM2 (Homo sapiens, UniProt P14618); test: PKM2 Biochemical Assay; settings: for Max. Resp.: % maximum response in a biochemical assay as compared with Fructose 1,6-bisphosphate
Sequence of PKM2 (P14618 whole entry): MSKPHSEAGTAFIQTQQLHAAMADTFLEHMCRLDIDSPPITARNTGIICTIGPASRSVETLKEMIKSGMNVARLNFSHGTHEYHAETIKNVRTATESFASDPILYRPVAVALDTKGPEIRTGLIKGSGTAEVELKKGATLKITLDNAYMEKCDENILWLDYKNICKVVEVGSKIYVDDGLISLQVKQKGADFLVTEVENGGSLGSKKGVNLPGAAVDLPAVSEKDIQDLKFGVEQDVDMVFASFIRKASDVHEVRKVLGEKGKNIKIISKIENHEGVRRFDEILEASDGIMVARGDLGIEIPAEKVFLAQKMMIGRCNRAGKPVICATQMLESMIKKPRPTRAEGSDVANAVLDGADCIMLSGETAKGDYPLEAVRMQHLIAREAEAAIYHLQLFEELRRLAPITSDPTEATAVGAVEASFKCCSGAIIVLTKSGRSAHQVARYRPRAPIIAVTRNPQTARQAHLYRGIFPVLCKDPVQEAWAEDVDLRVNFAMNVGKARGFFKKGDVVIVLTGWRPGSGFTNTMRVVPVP
Method: Full length, human PKM2 enzyme was obtained from Promab (Richmond, Calif.). All reagents, unless otherwise noted, were obtained from Sigma (St. Louis, Mo.).
Compounds were pre-incubated with 2 nM PKM2 in reaction buffer (50 mM Tris-HCl, pH 8.0, 200 mM KCl, 30 mM MgCl2, 2 mM DTT, 5% DMSO) for 30 min at ambient temperature. […] After 30 min, ATP formation was measured by Kinase Glo (Promega, Madison, Wis.), and AC50 values were determined using Prism (GraphPad Software, Inc., La Jolla, Calif.).

In the case of `CO[C@H]1CC[C@H](N(Cc2ccccc2F)C(=O)c2cc(C(F)(F)F)n[nH]2)CC1` [Example 47, N-(2-FLUOROBENZYL)-N-(TRANS-4-METHOXYCYCLOHEXYL)-3-(TRIFLUOROMETHYL)-1H-PYRAZOLE-5-CARBOXAMIDE], the EC50 (A549 cells) is reported as 188 nM, the EC50 (PC3 cells) is reported as 383 nM and the “Max. Resp.” value (PKM2) is reported as 89%.

`CO[C@H]1CC[C@H](N(Cc2cccc(N)c2)C(=O)c2cc(C(F)(F)F)n[nH]2)CC1` [Example 54] was tested, and the EC50 (A549 cells) was 102 nM, the EC50 (PC3 cells) was 193 nM and the “Max. Resp.” value (PKM2) was 93%.

With `O=C(c1cc(C(F)(F)F)n[nH]1)N(CCC1CCS(=O)(=O)C1)Cc1ccccc1Cl` (stereo not shown) [Example 62, N-(2-chlorobenzyl)-N-(2-(1,1-dioxidotetrahydrothiophen-3-yl)ethyl)-3-(trifluoromethyl)-1H-pyrazole-5-carboxamide] the EC50 (A549 cells) was 108 nM, the EC50 (PC3 cells) was 166 nM and the “Max. Resp.” value (PKM2) was 105%.

In the case of `O=C(c1cc(C(F)(F)F)n[nH]1)N(CCC1CCS(=O)(=O)CC1)Cc1ccccc1Cl` [Example 75, N-(2-chlorobenzyl)-N-(2-(1,1-dioxidotetrahydro-2H-thiopyran-4-yl)ethyl)-3-(trifluoromethyl)-1H-pyrazole-5-carboxamide], the EC50 (A549 cells) is reported as 148 nM, the EC50 (PC3 cells) is reported as 223 nM and the “Max. Resp.” value (PKM2) is reported as 102%.

Compound `Nc1cccc(F)c1CN(CCC1CCS(=O)(=O)CC1)C(=O)c1cc(C(F)(F)F)n[nH]1` [Example 91, N-(2-amino-6-fluorobenzyl)-N-(2-(1,1-dioxidotetrahydro-2H-thiopyran-4-yl)ethyl)-3-(trifluoromethyl)-1H-pyrazole-5-carboxamide] has an EC50 (A549 cells) of 20.3 nM and an EC50 (PC3 cells) of 47.3 nM.

In the case of `O=C(c1cc(C(F)(F)F)n[nH]1)N(CCN1CCCC(O)C1)Cc1ccccc1Cl` (stereo not shown) [Example 220, N-(2-chlorobenzyl)-3-(trifluoromethyl)-N-(2-(3-hydroxypiperidin-1-yl)ethyl)-1H-pyrazole-5-carboxamide], the “Max. Resp.” value (PKM2) is reported as 100%.

In the case of `CC(CN(Cc1c(N)cccc1Cl)C(=O)c1cc(C(F)(F)F)n[nH]1)N1CCCC1` (stereo not shown) [Example 221, N-(2-amino-6-chlorobenzyl)-3-(trifluoromethyl)-N-(2-(pyrrolidin-1-yl)propyl)-1H-pyrazole-5-carboxamide], the “Max. Resp.” value (PKM2) is reported as 60%.

For `Nc1cccc(Cl)c1CN(CCN1CCCC1)C(=O)c1cc(C(F)(F)F)n[nH]1` [Example 222, N-(2-amino-6-chlorobenzyl)-3-(trifluoromethyl)-N-(2-(pyrrolidin-1-yl)ethyl)-1H-pyrazole-5-carboxamide], the “Max. Resp.” value (PKM2) was 100%.

In the case of `CCCN(CC)CCN(Cc1c(N)cccc1Cl)C(=O)c1cc(C(F)(F)F)n[nH]1` [Example 223, N-(2-chloro-6-aminobenzyl)-N-(2-(ethyl-propylamino)ethyl)-3-(trifluoromethyl)-1H-pyrazole-5-carboxamide], the EC50 (A549 cells) is reported as 33.5 nM, the EC50 (PC3 cells) is reported as 54 nM and the “Max. Resp.” value (PKM2) is reported as 100%.

For `Nc1cccc(Cl)c1CN(CCN1CCS(=O)(=O)CC1)C(=O)c1cc(C(F)(F)F)n[nH]1` [Example 224, N-(2-amino-6-chlorobenzyl)-N-(2-(4-dioxothiomorpholino)ethyl)-3-(trifluoromethyl)-1H-pyrazole-5-carboxamide], the “Max. Resp.” value (PKM2) was 100%.

For `Nc1cccc(Cl)c1CN(CCN1CCCC(O)C1)C(=O)c1cc(C(F)(F)F)n[nH]1` (stereo not shown) [Example 225, N-(2-amino-6-chlorobenzyl)-3-(trifluoromethyl)-N-(2-(3-hydroxypiperidin-1-yl)ethyl)-1H-pyrazole-5-carboxamide], the “Max. Resp.” value (PKM2) was 100%.

`O=C(c1cc(C(F)(F)F)n[nH]1)N(Cc1ccccc1Cl)CC1CCN1` (stereo not shown) [Example 227, N-(2-chlorobenzyl)-N-((azetidin-2-yl)methyl)-3-(trifluoromethyl)-1H-pyrazole-5-carboxamide] was tested, and the EC50 (A549 cells) was 928 nM, the EC50 (PC3 cells) was 1310 nM and the “Max. Resp.” value (PKM2) was 100%.

`CS(=O)(=O)N1CCCC(CCN(Cc2ccccc2Cl)C(=O)c2cc(C(F)(F)F)n[nH]2)C1` (stereo not shown) [Example 228, N-(2-chlorobenzyl)-N-(2-(1-(methylsulfonyl)piperidin-3-yl)ethyl)-3-(trifluoromethyl)-1H-pyrazole-5-carboxamide] was tested, and the “Max. Resp.” value (PKM2) was 100%.

`O=C(c1cc(C(F)(F)F)n[nH]1)N(CCc1ccc(O)cc1)Cc1ccccc1Cl` [Example 230, N-(2-chlorobenzyl)-N-(4-hydroxyphenethyl)-3-(trifluoromethyl)-1H-pyrazole-5-carboxamide] was tested, and the “Max. Resp.” value (PKM2) was 100%.

`CCN1CCCC1CN(Cc1ccccc1Cl)C(=O)c1cc(C(F)(F)F)n[nH]1` (stereo not shown) [Example 231, N-(2-chlorobenzyl)-N-((1-ethylpyrrolidin-2-yl)methyl)-3-(trifluoromethyl)-1H-pyrazole-5-carboxamide] was tested, and the AC50 (PKM2) was 148 nM and the “Max. Resp.” value (PKM2) was 65%.

In the case of `O=C(c1cc(C(F)(F)F)n[nH]1)N(Cc1ccccc1Cl)CC1CCCN1` (stereo not shown) [Example 232, N-(2-chlorobenzyl)-3-(trifluoromethyl)-N-((pyrrolidin-2-yl)methyl)-1H-pyrazole-5-carboxamide], the “Max. Resp.” value (PKM2) is reported as 85%.

With `Nc1cccc(Cl)c1CN(CC1CCN1)C(=O)c1cc(C(F)(F)F)n[nH]1` (stereo not shown) [Example 233, N-(2-amino-6-chlorobenzyl)-N-((azetidin-2-yl)methyl)-3-(trifluoromethyl)-1H-pyrazole-5-carboxamide] the “Max. Resp.” value (PKM2) was 75%.

With `Nc1cccc(Cl)c1CN(CCN1CCC(O)C1)C(=O)c1cc(C(F)(F)F)n[nH]1` (stereo not shown) [Example 234, N-(2-amino-6-chlorobenzyl)-3-(trifluoromethyl)-N-(2-(3-hydroxypyrrolidin-1-yl)ethyl)-1H-pyrazole-5-carboxamide] the EC50 (A549 cells) was 45.8 nM, the EC50 (PC3 cells) was 92.4 nM and the “Max. Resp.” value (PKM2) was 100%.

With `COC1CCN(CCN(Cc2c(N)cccc2Cl)C(=O)c2cc(C(F)(F)F)n[nH]2)C1` (stereo not shown) [Example 235, N-(2-amino-6-chlorobenzyl)-3-(trifluoromethyl)-N-(2-(3-methoxypyrrolidin-1-yl)ethyl)-1H-pyrazole-5-carboxamide] the “Max. Resp.” value (PKM2) was 100%.

`Nc1cccc(Cl)c1CN(CCN1CCCC(F)C1)C(=O)c1cc(C(F)(F)F)n[nH]1` (stereo not shown) [Example 236, N-(2-amino-6-chlorobenzyl)-3-(trifluoromethyl)-N-(2-(3-fluoropiperidin-1-yl)ethyl)-1H-pyrazole-5-carboxamide] was tested, and the EC50 (A549 cells) was 8.1 nM, the EC50 (PC3 cells) was 33 nM and the “Max. Resp.” value (PKM2) was 73%.

For `COC1CCCN(CCN(Cc2c(N)cccc2Cl)C(=O)c2cc(C(F)(F)F)n[nH]2)C1` (stereo not shown) [Example 237, N-(2-amino-6-chlorobenzyl)-3-(trifluoromethyl)-N-(2-(3-methoxypiperidin-1-yl)ethyl)-1H-pyrazole-5-carboxamide], the “Max. Resp.” value (PKM2) was 100%.

For `Nc1cccc(Cl)c1CN(CCN1CCCOCC1)C(=O)c1cc(C(F)(F)F)n[nH]1` [Example 239, N-(2-(1,4-oxazepan-4-yl)ethyl)-N-(2-amino-6-chlorobenzyl)-3-(trifluoromethyl)-1H-pyrazole-5-carboxamide], the EC50 (A549 cells) was 73.1 nM, the EC50 (PC3 cells) was 129 nM and the “Max. Resp.” value (PKM2) was 100%.

In the case of `CCCN(CC)CCN(Cc1c(N)cccc1F)C(=O)c1cc(C(F)(F)F)n[nH]1` [Example 240, N-(2-fluoro-6-aminobenzyl)-N-(2-(ethyl-propylamino)ethyl)-3-(trifluoromethyl)-1H-pyrazole-5-carboxamide], the “Max. Resp.” value (PKM2) is reported as 100%.

For `Nc1cccc(Cl)c1CN(CCN1CC[C@H](F)C1)C(=O)c1cc(C(F)(F)F)n[nH]1` [Example 241, N-(2-amino-6-chlorobenzyl)-3-(trifluoromethyl)-N-(2-((S)-3-fluoropyrrolidin-1-yl)ethyl)-1H-pyrazole-5-carboxamide], the “Max. Resp.” value (PKM2) was 100%.

In the case of `Nc1cccc(Cl)c1CN(CCN1CC[C@@H](F)C1)C(=O)c1cc(C(F)(F)F)n[nH]1` [Example 242, N-(2-amino-6-chlorobenzyl)-3-(trifluoromethyl)-N-(2-((R)-3-fluoropyrrolidin-1-yl)ethyl)-1H-pyrazole-5-carboxamide], the “Max. Resp.” value (PKM2) is reported as 100%.

`Nc1cccc(Cl)c1CN(CCN1CCCC(F)CC1)C(=O)c1cc(C(F)(F)F)n[nH]1` (stereo not shown) [Example 243, N-(2-amino-6-chlorobenzyl)-N-(2-(4-fluoroazepan-1-yl)ethyl)-3-(trifluoromethyl)-1H-pyrazole-5-carboxamide] was tested, and the “Max. Resp.” value (PKM2) was 100%.

With `O=C(c1cc(Br)n[nH]1)N(Cc1ccc(O)cc1F)CC1CCC1` [Example 245] the “Max. Resp.” value (PKM2) was 100%.

In the case of `O=C(c1cc(C2CC2)n[nH]1)N(Cc1ccc(O)cc1F)CC1CCC1` [Example 246], the “Max. Resp.” value (PKM2) is reported as 85% and the AC50 (PKM2; read-out: PKM2 AC50, 2 nM PKM2, 75 μM ADP, 15 μM PEP, Kinase Glo) is reported as 92 nM.

In the case of `O=C(COP(=O)(O)O)[C@@H](O)[C@H](O)[C@H](O)COP(=O)(O)O` [FBP, fructose-1,6-bisphosphate, reference compound], the Emax (PKM2; read-out: % FBP (extent of maximal activation, relative to FBP)) is reported as 100%, the AC50 (PKM2; read-out: AC50 (concentration of half-maximal PKM2 activation), Table 2, n = 6 to 10) is reported as 23 ± 8 nM and the “Maximal PKM2 activity” value (PKM2; relative to activity in DMSO controls (normalized to 100%), FIG. 1B) is reported as “approximately 600%”.
